# Data reported in patent US7671054B1, “Reverse-turn mimetics and method relating thereto” (Choongwae Pharma Corporation, priority 2001, dated 2010).
# Test system: TCF4/β-catenin transcription (TOPFlash) in SW480 cells
# Experiment: Reporter gene assay (TOPFlash luciferase)
# Type: cell-based
# Details: Homo sapiens, SW480, Table 4; Reporter gene assay as described in Example 6; read-out: IC50
# Description: SW480 cells were transfected with the usage of Superfect™ transfect reagent (Qiagen, 301307). Cells were trypsinized briefly 1 day before transfection and plated on 6 well plate (5×10^5 cells/well) so that they were 50-80% confluent on the day of transfection.
# Four microgram (TOPFlash) and one microgram (pRL-null) of DNAs were diluted in 150 μl of serum-free medium, and 30 μl of Superfect™ transfect reagent was added. The DNA-Superfect mixture was incubated at room temperature for 15 min, and then, 1 ml of 10% FBS DMEM was added to this complex for an additional 3 hours of incubation. While complexes were forming, cells were washed with PBS twice without antibiotics.
# The DNA-Superfect™ transfect reagent complexes were applied to the cells before incubating at 37° C. at 5% CO2 for 3 hours. After incubation, recovery medium with 10% FBS was added to bring the final volume to 1.18 ml. After 3 hours incubation, the cells were harvested and reseeded to 96 well plate (3×10^4 cells/well). After overnight incubation at 37° C. at 5% CO2, the cells were treated with Compound A for 24 hours. Finally, the activity was checked by means of luciferase assay (Promega, E1960).
row,IC50 [µM],Structure (SMILES)
1,4.8,Cc1cc(C)c(N(C)C)c(CN2C[C@H]3N(C(=O)CN(C)N3C(=O)NCc3ccccc3)[C@@H](Cc3ccc(O)cc3)C2=O)c1 [Compound 51]
2,66.1 ± 6.8,CN1CC(=O)N2[C@@H](Cc3ccc(O)cc3)C(=O)N(Cc3ccc(F)cc3F)[C@@H](COC=O)[C@@H]2N1C(=O)NCc1ccccc1 [Compound 81]
3,10.7,COc1cccc(CN2CC3N(C(=O)CN(C)N3C(=O)NCc3ccccc3)[C@@H](Cc3ccc(O)cc3)C2=O)c1OC (stereo partly drawn) [Compound 23]
4,10.4,COc1ccc(CN2CC3N(C(=O)CN(C)N3C(=O)NCc3ccccc3)[C@@H](Cc3ccc(O)cc3)C2=O)cc1 (stereo partly drawn) [Compound 22]
5,1.2 ± 0.3,C=CCN1CC(=O)N2[C@@H](Cc3ccc(O)cc3)C(=O)N(Cc3cccc(N4CCCC4=O)c3)C[C@@H]2N1C(=O)NCc1ccccc1 [Compound 152]
6,3.3 ± 0.2,[2H]c1cc(C[C@H]2C(=O)N(Cc3cccc4ccccc34)C[C@H]3N2C(=O)CN(C)N3C(=O)NCc2ccccc2)cc([2H])c1O [Compound 166]
7,2.7 ± 0.3,C#CCN1CC(=O)N2[C@@H](Cc3ccc(O)cc3)C(=O)N(Cc3ccc(Cl)c(N4CCOCC4)c3)C[C@@H]2N1C(=O)NCc1ccccc1 [Compound 140]
8,1.3 ± 0.1,C=CCN1CC(=O)N2[C@@H](Cc3ccc(O)cc3)C(=O)N(Cc3cccc(OC(F)(F)F)c3)C[C@@H]2N1C(=O)NCc1ccccc1 [Compound 206]
9,2.2 ± 0.2,CN1CC(=O)N2[C@@H](Cc3ccc(O)cc3)C(=O)N(Cc3cccc4c3cnn4Cc3ccccc3N)C[C@@H]2N1C(=O)NCc1ccccc1 [Compound 88]
10,9.7,CN1CC(=O)N2[C@@H](Cc3ccc(O)cc3)C(=O)N(Cc3ccc4ccccc4n3)C[C@@H]2N1C(=O)NCc1ccccc1 [Compound 39]
11,8.7 ± 0.4,C=CCN1CC(=O)N2[C@@H](CN([C@H](C)c3ccc(Cl)c4cccnc34)C(=O)[C@@H]2Cc2ccc(O)cc2)N1C(=O)NCc1ccccc1 [Compound 189]
12,4.2 ± 0.1,CCCN1CC(=O)N2[C@@H](Cc3ccc(O)cc3)C(=O)N(Cc3ccc(F)cc3F)C[C@@H]2N1C(=O)NCc1ccccc1 [Compound 157]
13,25.3 ± 6.6,CCN(CC)c1cc(F)ccc1[C@H](C)N1C[C@H]2N(C(=O)CN(C)N2C(=O)NCc2ccccc2)[C@@H](Cc2ccc(O)cc2)C1=O [Compound 64]
14,5.2,CN(C)c1ccccc1CN1C[C@H]2N(C(=O)CN(C)N2C(=O)NCc2ccccc2)[C@@H](Cc2ccc(O)cc2)C1=O [Compound 43]
15,1.6 ± 0.2,C=CCN1CC(=O)N2[C@@H](Cc3ccc(O)c(F)c3)C(=O)N(Cc3cccc4scnc34)C[C@@H]2N1C(=O)NCc1ccccc1 [Compound 216]
16,6.9 ± 1.7,CC(c1cc(N(C)C)cc(C(F)(F)F)c1)N1C[C@H]2N(C(=O)CN(C)N2C(=O)NCc2ccccc2)[C@@H](Cc2ccc(O)cc2)C1=O (stereo partly drawn) [Compound 60]
17,18.2,CN(C)c1cccc(F)c1CN1C[C@H]2N(C(=O)CN(C)N2C(=O)NCc2ccccc2)[C@@H](Cc2ccc(O)cc2)C1=O [Compound 42]
18,0.6 ± 0.1,C=CCN1CC(=O)N2[C@@H](Cc3ccc(O)cc3)C(=O)N(Cc3ccc(F)c4scnc34)C[C@@H]2N1C(=O)NCc1ccccc1 [Compound 223]
19,2.2,CN(C)c1cc(Cl)ccc1CN1C[C@H]2N(C(=O)CN(C)N2C(=O)NCc2ccccc2)[C@@H](Cc2ccc(O)cc2)C1=O [Compound 45]
20,4.4,CN1CC(=O)N2[C@@H](Cc3ccc(O)cc3)C(=O)N(Cc3cccc4nccnc34)C[C@@H]2N1C(=O)NCc1ccccc1 [Compound 34]
21,2.2 ± 0.7,C=CCN1CC(=O)N2[C@@H](Cc3ccc(O)cc3)C(=O)N(Cc3cccc4sc(N5CCOCC5)nc34)C[C@@H]2N1C(=O)NCc1ccccc1 [Compound 219]
22,1.8 ± 0.2,C=CCN1CC(=O)N2[C@@H](Cc3ccc(O)cc3)C(=O)N(Cc3cccc(N4CCOCC4)c3)C[C@@H]2N1C(=O)NCc1ccccc1 [Compound 127]
23,9.4 ± 1.5,CN(c1cccc(CN2C[C@H]3N(C(=O)CN(C)N3C(=O)NCc3ccccc3)[C@@H](Cc3ccc(O)cc3)C2=O)c1)C1CC1 [Compound 57]
24,1.3 ± 0.1,C=CCN1CC(=O)N2[C@@H](Cc3ccc(O)cc3)C(=O)N(Cc3cc(C)cc4c3N(C)CCO4)C[C@@H]2N1C(=O)NCc1ccccc1 [Compound 167]
25,12.6 ± 1.2,CN1CC(=O)N2[C@@H](Cc3ccc(O)cc3)C(=O)N(Cc3ccccc3N3CCOCC3)C[C@@H]2N1C(=O)NCc1ccccc1 [Compound 97]

row,IC50 [µM],Structure (SMILES)
1,4.5 ± 0.9,C#CCN1CC(=O)N2[C@@H](Cc3ccc(O)cc3)C(=O)N(Cc3ccc(C)c(N4CCOCC4)c3)C[C@@H]2N1C(=O)NCc1ccccc1 [Compound 134]
2,2.9 ± 0.2,CN1CC(=O)N2[C@@H](Cc3ccc(O)cc3)C(=O)N(Cc3cccc4cn(Cc5cccc(N)c5)nc34)C[C@@H]2N1C(=O)NCc1ccccc1 [Compound 91]
3,1.3,CN1CC(=O)N2[C@@H](Cc3ccc(O)cc3)C(=O)N(Cc3ccc(F)cc3C(F)(F)F)C[C@@H]2N1C(=O)NCc1ccccc1 [Compound 44]
4,8.1 ± 0.8,CN(C)CCn1ncc2cccc(CN3C[C@H]4N(C(=O)CN(C)N4C(=O)NCc4ccccc4)[C@@H](Cc4ccc(O)cc4)C3=O)c21 [Compound 87]
5,< 1.6,C=CCN1CC(=O)N2[C@@H](Cc3ccc(O)cc3)C(=O)N(Cc3cccc4sc(Cl)nc34)C[C@@H]2N1C(=O)NCc1ccccc1 [Compound 217]
6,16.7 ± 1.4,C#CCN1CC(=O)N2[C@@H](Cc3ccc(O)cc3)C(=O)N(Cc3ccc4c(c3)OCCN4C)C[C@@H]2N1C(=O)NCc1ccccc1 [Compound 146]
7,28 ± 2.9,C=CCN1CC(=O)N2[C@@H](Cc3ccc(O)cc3)C(=O)N(Cc3ccc4[nH]nnc4c3)C[C@@H]2N1C(=O)NCc1ccccc1 [Compound 136]
8,0.9 ± 0.02,C=CCN1CC(=O)N2[C@@H](Cc3ccc(O)cc3)C(=O)N(Cc3cccc4c3OCCN4C)C[C@@H]2N1C(=O)NCc1ccccc1 [Compound 158]
9,2.4 ± 0.5,C=CCN1CC(=O)N2[C@@H](Cc3ccc(O)cc3)C(=O)N(Cc3ccc(Cl)c(N(C)C)c3)C[C@@H]2N1C(=O)NCc1ccccc1 [Compound 129]
10,3.3,CN1CC(=O)N2C(CN(Cc3cccc(Cl)c3)C(=O)[C@@H]2Cc2ccc(O)cc2)N1C(=O)NCc1ccccc1 (stereo partly drawn) [Compound 18]
11,2.1 ± 0.4,CCCN1CC(=O)N2[C@@H](Cc3ccc(O)cc3)C(=O)N(Cc3cccc4cccnc34)C[C@@H]2N1C(=O)NCc1ccccc1 [Compound 122]
12,6.5 ± 0.7,CN1CC(=O)N2[C@@H](Cc3ccc(O)cc3)C(=O)N(Cc3cccc(N4CCCCC4)c3)C[C@@H]2N1C(=O)NCc1ccccc1 [Compound 71]
13,25,CN1CC(=O)N2[C@@H](Cc3ccc(OCC(=O)O)cc3)C(=O)N(Cc3cccc4ccccc34)C[C@@H]2N1C(=O)NCc1ccccc1 [Compound 52]
14,12.5,CN1CC(=O)N2[C@@H](CN(Cc3cccc4ccccc34)C(=O)[C@H]2c2ccc(O)cc2)N1C(=O)NCc1ccccc1 [Compound 36]
15,30.5 ± 4.1,CCCN1CC(=O)N2[C@@H](Cc3ccc(O)cc3)C(=O)N(Cc3cc(N(C)C(C)C)cc(C(F)(F)F)c3)C[C@@H]2N1C(=O)NCc1ccccc1 [Compound 155]
16,7.5,CN1CC(=O)N2[C@@H](Cc3ccc(O)cc3)C(=O)N(Cc3ccccc3OC(F)(F)F)C[C@@H]2N1C(=O)NCc1ccccc1 [Compound 30]
17,3.5 ± 0.7,C=CCN1CC(=O)N2[C@@H](Cc3ccc(O)cc3)C(=O)N(Cc3ccc(C)c(N4CCOCC4)c3)C[C@@H]2N1C(=O)NCc1ccccc1 [Compound 133]
18,1.6 ± 1.2,C=CCN1CC(=O)N2[C@@H](Cc3ccc(O)cc3)C(=O)N(Cc3cccc4sc(N5CCCCC5)nc34)C[C@@H]2N1C(=O)NCc1ccccc1 [Compound 218]
19,14.4 ± 2.2,CN1CC(=O)N2[C@@H](Cc3ccc(O)cc3)C(=O)N(Cc3cccc4c3cnn4CCN3CCOCC3)C[C@@H]2N1C(=O)NCc1ccccc1 [Compound 98]
20,17.7,CN1CC(=O)N2C(CN(Cc3cc(F)ccc3F)C(=O)[C@@H]2Cc2ccc(O)cc2)N1C(=O)NCc1ccccc1 (stereo partly drawn) [Compound 14]
21,13.3 ± 1.6,C=CCN1CC(=O)N2[C@@H](Cc3ccc(O)cc3)C(=O)N(Cc3cc(N(C)C(C)C)cc(C(F)(F)F)c3)C[C@@H]2N1C(=O)NCc1ccccc1 [Compound 156]
22,2.3,CC(c1ccc(F)cc1)N1C[C@H]2N(C(=O)CN(C)N2C(=O)NCc2ccccc2)[C@@H](Cc2ccc(O)cc2)C1=O (stereo partly drawn) [Compound 37]
23,8.8 ± 1.9,CN1CC(=O)N2[C@@H](Cc3ccc(O)cc3)C(=O)N(Cc3cccc4[nH]ncc34)C[C@@H]2N1C(=O)NCc1ccccc1 [Compound 70]
24,2.3 ± 0.2,C=CCN1CCN2[C@@H](Cc3ccc(O)cc3)C(=O)N(Cc3ccc(OC(F)(F)F)cc3)C[C@@H]2N1C(=O)NCc1ccccc1 [Compound 211]

row,Structure (SMILES),IC50 [µM]
1,C=CCN1CC(=O)N2[C@@H](Cc3ccc(OP(=O)(O)O)cc3)C(=O)N(Cc3ccc(Cl)c(N(C)C)c3)C[C@@H]2N1C(=O)NCc1ccccc1 [Compound 161],1.8 ± 0.2
2,C=CCN1CC(=O)N2[C@@H](Cc3ccc(OP(=O)(O)O)cc3)C(=O)N(Cc3ccc(OC)cc3)C[C@@H]2N1C(=O)NCc1ccccc1 [Compound 209],1.9 ± 0.5
3,CN1CC(=O)N2C(CN(Cc3ccc(F)cc3)C(=O)[C@@H]2Cc2ccc(O)cc2)N1C(=O)NCc1ccccc1 (stereo partly drawn) [Compound 10],4
4,C=CCN1CC(=O)N2[C@@H](Cc3ccc(OP(=O)(O)O)cc3)C(=O)N(Cc3cc(F)c(F)cc3N(C)C)C[C@@H]2N1C(=O)NCc1ccccc1 [Compound 163],1.7 ± 0.5
5,C=CCN1CC(=O)N2[C@@H](Cc3ccc(OP(=O)(O)O)cc3)C(=O)N(Cc3cccc4scnc34)C[C@@H]2N1C(=O)NCc1ccccc1 [Compound 197],0.7 ± 0.2
